Reference: patent US20210364534A1, “METHODS OF USING HISTATIN FOR DIAGNOSING AND TREATING A DRY EYE DISEASE OR OTHER OCULAR DISEASES” (THE BOARD OF TRUSTEES OF THE UNIVERSITY OF ILLINOIS, priority 2018, published 2021)
Marks after values point to notes of the source that are not given here. Non-standard residues stand in square brackets, D forms with d. No end group written: not given here. pS = N[C@@H](COP(=O)(O)O)C(=O)O

Legend:
IL8 = IL8 expression induced by BAK application to HCE cells; assay type: cell-based, Human; conditions: BAK-treated HCE cells, histatin co-treatment
[1] = system: Human corneal epithelial (HCE) cells; test: WST-1 cell viability of HCE cells exposed to benzalkonium chloride (BAK); assay type: cell-based; conditions: BAK-treated HCE cells co-treated with histatin; FIG. 5
Experimental: Experiments were performed in triplicate. *<0.05, **<0.01. Bar represents SEM.
To determine whether histatins could improve symptoms of dry eye disease, cell viability assays were carried out in the presence of the toxic preservative benzalkonium chloride (BAK)(Yang, et al. (2017) Int. J. Mol. Sci. 18(3):509). Human corneal epithelial (HCE) cells were cultivated under standard conditions and viability was assessed using WST-1 reagent, a tetrazolium salt that is reduced to a red formazan dye by the mitochondrial dehydrogenases of metabolically active cells (Bartok, et al. (2015) EXCLI J. 14:123-132).

IL6 = IL6 expression induced by BAK application to HCE cells; assay type: cell-based, Human; conditions: BAK-treated HCE cells, histatin co-treatment
TNFα = TNFα expression induced by BAK application to HCE cells; assay type: cell-based, Human; conditions: BAK-treated HCE cells, histatin co-treatment
[2] = system: dry eye disease murine model (BAK exposure); test: Murine model of dry eye disease (benzalkonium chloride exposure), NEI score; assay type: in vivo; conditions: twice a day topical 80 μM, by 7 days, versus vehicle control (BSS); FIG. 6
Experimental: Results are based upon the National Eye Institute/Industry (NEI) grading scale (Lemp (1995) CLAO J. 21:221-232) in animals treated with H5 or Balanced Salt Solution (BSS). All experiments were performed in triplicate. *<0.05, **<0.01. Bar represents SEM.

human corneal epithelia = conditions: Shah, et al. (2017) PLoS One 12(5):e0178030; cited from earlier work

Substance | Decrease in cytokine expression IL8 mRNA (IL8) | HCE viability (WST-1) [1] | Decrease in cytokine expression IL6 mRNA (IL6) | Decrease in cytokine expression IL6 protein (IL6) | Decrease in cytokine expression TNFα protein (TNFα) | standardized dry eye disease score (NEI score) [2] | migration of human corneal epithelia (human corneal epithelia)
Histatin 5 (DSHAKRHHGYKRKFHEKHHSHRGY) [Histatin H5] | 46%* | improved | 45%* | 45% | 32%** | reduced standardized dry eye disease score (NEI score) in a statistically significant manner | –
Histatin-1 (D[pS]HEKRHHGYRRKFHEKHHSHREFPFYGDYGSNYLYDN) [Histatin H1] | 86%** | improved | 82%** | 48%* | 12% | – | promote migration
